Measurements reported in ChEMBL document CHEMBL5729705, “Amide compounds for treatment of immune and inflammatory disorders” (2023).

Molecular target: Complement factor D (Homo sapiens, UniProt P00746)
Assay: Human Factor D Assay: Human Factor D (purified from human serum, Complement Technology, Inc.) at 80 nM final concentration is incubated with test compound at various concentrations for 5 minutes at room temperature in 50 mM Tris, 1M NaCl, pH 7.5. A synthetic substrate Z-L-Lys-SBzl and DTNB (Ellman's reagent) are added to final concentrations of 100 μM each. Absorbance at 405 nm (A405) is recorded at 30 second intervals for 30 minutes using a microplate spectrophotometer. IC50values are calculated by nonlinear regression of complement Factor D reaction rates as a function of test compound concentration.

Complement factor D, sequence (P00746 whole entry): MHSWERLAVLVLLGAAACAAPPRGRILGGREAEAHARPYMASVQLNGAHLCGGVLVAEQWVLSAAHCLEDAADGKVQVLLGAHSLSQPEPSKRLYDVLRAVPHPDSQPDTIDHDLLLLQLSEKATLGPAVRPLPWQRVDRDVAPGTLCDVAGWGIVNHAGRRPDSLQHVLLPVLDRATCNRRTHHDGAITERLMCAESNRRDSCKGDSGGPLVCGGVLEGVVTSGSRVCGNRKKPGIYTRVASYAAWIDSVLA

Row | Compound | IC50 [µM]
1 | Cc1cccc(CC(O)[C@H]2C[C@@H](F)CN2C(=O)Cn2cc(C(N)=O)c3cc(C(=O)NS(=O)(=O)C4CC4)ccc32)n1 (some centres not stated) | > 10
2 | Cc1cccc(CC(O)[C@@H]2C[C@@H](F)CN2C(=O)Cn2cc(C(N)=O)c3cc(C(=O)NS(=O)(=O)C4CC4)ccc32)n1 (some centres not stated) | > 10
